Activity calls are given as the source filed them. No rule for the calls is given here.
Tested on: CCRIS mutagenicity, Ames/micronucleus/aberration tests
Test: CCRIS mutagenicity studies

Measured: mutagenic call

CCCCC(CC)COC(=O)c1ccccc1C(=O)OCC(CC)CCCC (stereo not drawn)
inactive: End Point: IN VITRO MICRONUCLEUS, Test System: V79 CELLS, Metabolic Activation: NONE inactive; negative | End Point: IN VITRO MICRONUCLEUS, Test System: V79 CELLS, Metabolic Activation: RAT, LIVER, S-9, AROCLOR 1254 inactive; negative | End Point: IN VIVO MICRONUCLEUS, Test System: HEPATOCYTES, Species: RAT, Strain/Sex: FISHER 344 OR SD/MALE, Route: ORAL OR IP inactive; negative | End Point: IN VIVO MICRONUCLEUS, Test System: PERIPHERAL BLOOD RETICULOCYTES, Species: RAT, Strain/Sex: FISHER 344 OR SD/MALE, Route: ORAL OR IP inactive; negative | Test System: AMES SALMONELLA TYPHIMURIUM, Strain/Indicator: TA97, Metabolic Activation: HAMSTER LIVER S-9, AROCLOR 1254 (10 OR 30%), Method: PREINCUBATION inactive; negative | Test System: AMES SALMONELLA TYPHIMURIUM, Strain/Indicator: TA97, Metabolic Activation: NONE, Method: PREINCUBATION inactive; negative | Test System: AMES SALMONELLA TYPHIMURIUM, Strain/Indicator: TA97, Metabolic Activation: NONE, Method: STANDARD PLATE inactive; negative | Test System: AMES SALMONELLA TYPHIMURIUM, Strain/Indicator: TA97, Metabolic Activation: RAT LIVER S-9, AROCLOR 1254 (10 OR 30%), Method: PREINCUBATION inactive; negative | Test System: AMES SALMONELLA TYPHIMURIUM, Strain/Indicator: TA97, Metabolic Activation: S-9, Method: STANDARD PLATE inactive; negative | Test System: AMES SALMONELLA TYPHIMURIUM, Strain/Indicator: TA98, Metabolic Activation: HAMSTER LIVER S-9, AROCLOR 1254 (10 OR 30%), Method: PREINCUBATION inactive; negative | Test System: AMES SALMONELLA TYPHIMURIUM, Strain/Indicator: TA98, Metabolic Activation: HAMSTER, LIVER, S-9, AROCLOR 1254 (10%), Method: PREINCUBATION inactive; negative | Test System: AMES SALMONELLA TYPHIMURIUM, Strain/Indicator: TA98, Metabolic Activation: NONE, Method: FLUCTUATION (MICROTITER) inactive; negative | Test System: AMES SALMONELLA TYPHIMURIUM, Strain/Indicator: TA98, Metabolic Activation: NONE, Method: STANDARD PLATE inactive; negative | Test System: AMES SALMONELLA TYPHIMURIUM, Strain/Indicator: TA98, Metabolic Activation: RAT LIVER S-9, AROCLOR 1254 (10 OR 30%), Method: PREINCUBATION inactive; negative | Test System: AMES SALMONELLA TYPHIMURIUM, Strain/Indicator: TA98, Metabolic Activation: RAT LIVER S-9, AROCLOR 1254, Method: FLUCTUATION (MICROTITER) inactive; negative | Test System: AMES SALMONELLA TYPHIMURIUM, Strain/Indicator: TA98, Metabolic Activation: RAT LIVER S-9, PHENOBARBITAL AND BETA-NAPHTHOFLAVONE, Method: PREINCUBATION inactive; negative | Test System: AMES SALMONELLA TYPHIMURIUM, Strain/Indicator: TA98, Metabolic Activation: RAT, LIVER, S-9, AROCLOR 1254 (10%), Method: PREINCUBATION inactive; negative | Test System: AMES SALMONELLA TYPHIMURIUM, Strain/Indicator: TA98, Metabolic Activation: RAT, LIVER, S-9, AROCLOR 1254, Method: STANDARD PLATE inactive; negative | Test System: AMES SALMONELLA TYPHIMURIUM, Strain/Indicator: TA98, Metabolic Activation: S-9, Method: STANDARD PLATE inactive; negative | Test System: AMES SALMONELLA TYPHIMURIUM, Strain/Indicator: TA100, Metabolic Activation: HAMSTER LIVER S-9, AROCLOR 1254 (10 OR 30%), Method: PREINCUBATION inactive; negative | Test System: AMES SALMONELLA TYPHIMURIUM, Strain/Indicator: TA100, Metabolic Activation: HAMSTER, LIVER, S-9, AROCLOR 1254 (10%), Method: PREINCUBATION inactive; negative | Test System: AMES SALMONELLA TYPHIMURIUM, Strain/Indicator: TA100, Metabolic Activation: NONE, Method: STANDARD PLATE inactive; negative | Test System: AMES SALMONELLA TYPHIMURIUM, Strain/Indicator: TA100, Metabolic Activation: RAT LIVER S-9, AROCLOR 1254 (10 OR 30%), Method: PREINCUBATION inactive; negative | Test System: AMES SALMONELLA TYPHIMURIUM, Strain/Indicator: TA100, Metabolic Activation: RAT LIVER S-9, PHENOBARBITAL AND BETA-NAPHTHOFLAVONE, Method: PREINCUBATION inactive; negative | Test System: AMES SALMONELLA TYPHIMURIUM, Strain/Indicator: TA100, Metabolic Activation: RAT, LIVER, S-9, AROCLOR 1254 (10%), Method: PREINCUBATION inactive; negative | Test System: AMES SALMONELLA TYPHIMURIUM, Strain/Indicator: TA100, Metabolic Activation: RAT, LIVER, S-9, AROCLOR 1254, Method: STANDARD PLATE inactive; negative | Test System: AMES SALMONELLA TYPHIMURIUM, Strain/Indicator: TA100, Metabolic Activation: S-9, Method: STANDARD PLATE inactive; negative | Test System: AMES SALMONELLA TYPHIMURIUM, Strain/Indicator: TA102, Metabolic Activation: CO631 CELLS, Method: STANDARD PLATE inactive; negative | Test System: AMES SALMONELLA TYPHIMURIUM, Strain/Indicator: TA102, Metabolic Activation: NONE, Method: STANDARD PLATE inactive; negative | Test System: AMES SALMONELLA TYPHIMURIUM, Strain/Indicator: TA102, Metabolic Activation: PANCREATIN, Method: STANDARD PLATE inactive; negative | Test System: AMES SALMONELLA TYPHIMURIUM, Strain/Indicator: TA102, Metabolic Activation: PORCINE, PANCREAS, LIPASES, Method: STANDARD PLATE inactive; negative | Test System: AMES SALMONELLA TYPHIMURIUM, Strain/Indicator: TA102, Metabolic Activation: RAT HEPATOCYTES, Method: STANDARD PLATE inactive; negative | Test System: AMES SALMONELLA TYPHIMURIUM, Strain/Indicator: TA102, Metabolic Activation: RAT LIVER S-9, PHENOBARBITAL AND 5,6-BENZOFLAVONE, Method: STANDARD PLATE inactive; negative | Test System: AMES SALMONELLA TYPHIMURIUM, Strain/Indicator: TA102, Metabolic Activation: S-9, Method: STANDARD PLATE inactive; negative | Test System: AMES SALMONELLA TYPHIMURIUM, Strain/Indicator: TA1535, Metabolic Activation: HAMSTER LIVER S-9, AROCLOR 1254 (10 OR 30%), Method: PREINCUBATION inactive; negative | Test System: AMES SALMONELLA TYPHIMURIUM, Strain/Indicator: TA1535, Metabolic Activation: HAMSTER, LIVER, S-9, AROCLOR 1254 (10%), Method: PREINCUBATION inactive; negative | Test System: AMES SALMONELLA TYPHIMURIUM, Strain/Indicator: TA1535, Metabolic Activation: NONE, Method: STANDARD PLATE inactive; negative | Test System: AMES SALMONELLA TYPHIMURIUM, Strain/Indicator: TA1535, Metabolic Activation: RAT LIVER S-9, AROCLOR 1254 (10 OR 30%), Method: PREINCUBATION inactive; negative
